Drawing on paper PMC5564600 (Oncotarget, 2017), this text covers remaining activity for four compounds.

Test in all cases: biochemical
Assay type in all cases: binding

For assay [1], the target named is T1, panel of 442 kinases (Homo sapiens, UniProt Q99683).
T1 construct: purchased Ambit Biosciences (scanMAXX KINOMEscan)
T1 sequence (Q99683 1-1374): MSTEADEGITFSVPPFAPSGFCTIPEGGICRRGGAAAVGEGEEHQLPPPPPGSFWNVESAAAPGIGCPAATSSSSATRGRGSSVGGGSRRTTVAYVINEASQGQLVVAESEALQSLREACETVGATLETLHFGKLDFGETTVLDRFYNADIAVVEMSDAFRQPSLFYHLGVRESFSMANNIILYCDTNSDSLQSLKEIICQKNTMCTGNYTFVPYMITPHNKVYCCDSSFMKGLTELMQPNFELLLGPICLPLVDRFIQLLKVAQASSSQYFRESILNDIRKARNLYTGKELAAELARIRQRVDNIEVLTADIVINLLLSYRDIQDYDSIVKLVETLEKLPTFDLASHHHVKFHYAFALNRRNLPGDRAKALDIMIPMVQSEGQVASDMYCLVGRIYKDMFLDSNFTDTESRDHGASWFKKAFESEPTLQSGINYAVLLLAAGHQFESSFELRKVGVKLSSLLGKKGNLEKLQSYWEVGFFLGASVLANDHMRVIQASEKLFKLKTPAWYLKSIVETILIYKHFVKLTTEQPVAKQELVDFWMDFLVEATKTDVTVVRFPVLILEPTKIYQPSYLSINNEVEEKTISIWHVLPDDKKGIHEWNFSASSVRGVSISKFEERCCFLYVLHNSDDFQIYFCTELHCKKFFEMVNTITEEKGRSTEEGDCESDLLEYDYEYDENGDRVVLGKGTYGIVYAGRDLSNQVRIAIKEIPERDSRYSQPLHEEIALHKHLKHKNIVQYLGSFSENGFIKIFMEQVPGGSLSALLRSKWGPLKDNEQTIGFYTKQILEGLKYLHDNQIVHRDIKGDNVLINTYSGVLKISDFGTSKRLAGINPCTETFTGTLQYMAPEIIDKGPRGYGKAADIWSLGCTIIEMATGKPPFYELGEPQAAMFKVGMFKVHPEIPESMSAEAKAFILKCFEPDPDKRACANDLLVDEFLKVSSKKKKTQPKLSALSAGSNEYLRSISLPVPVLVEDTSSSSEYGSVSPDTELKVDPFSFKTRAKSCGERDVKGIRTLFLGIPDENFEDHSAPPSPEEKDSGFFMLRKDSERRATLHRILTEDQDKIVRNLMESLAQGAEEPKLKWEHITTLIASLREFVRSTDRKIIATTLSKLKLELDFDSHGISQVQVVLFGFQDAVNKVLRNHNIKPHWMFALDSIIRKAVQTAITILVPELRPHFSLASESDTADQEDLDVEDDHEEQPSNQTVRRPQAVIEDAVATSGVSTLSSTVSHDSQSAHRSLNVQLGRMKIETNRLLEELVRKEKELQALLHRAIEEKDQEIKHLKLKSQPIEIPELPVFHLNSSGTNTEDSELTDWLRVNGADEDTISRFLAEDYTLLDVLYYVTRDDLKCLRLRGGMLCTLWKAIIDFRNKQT
The following applies: ASK1; for remaining activity at 1 µM: read-out: % of control at 1 µM.

Assay [2] deals with T2, panel of 442 kinases (Homo sapiens, UniProt P49840).
T2 construct: purchased Ambit Biosciences (scanMAXX KINOMEscan)
To be noted: kinase GSK3A; for remaining activity at 1 µM: read-out: % of control at 1 µM.

Assay [3] concerns the target T3, panel of 442 kinases (Homo sapiens, UniProt Q14012).
T3 construct: purchased Ambit Biosciences (scanMAXX KINOMEscan)
To be noted: CAMK1; for remaining activity at 1 µM: read-out: % of control at 1 µM.

Assay [4] concerns the target T4, panel of 442 kinases (Homo sapiens, UniProt Q9UPE1).
T4 construct: purchased Ambit Biosciences (scanMAXX KINOMEscan)
The following applies: kinase SRPK3; for remaining activity at 1 µM: read-out: SRPK3 (% of control at 1 µM).

Assay [5] has as its target T5, panel of 442 kinases (Homo sapiens, UniProt Q7L7X3).
T5 construct: purchased Ambit Biosciences (scanMAXX KINOMEscan)
T5 sequence (Q7L7X3 1-1001): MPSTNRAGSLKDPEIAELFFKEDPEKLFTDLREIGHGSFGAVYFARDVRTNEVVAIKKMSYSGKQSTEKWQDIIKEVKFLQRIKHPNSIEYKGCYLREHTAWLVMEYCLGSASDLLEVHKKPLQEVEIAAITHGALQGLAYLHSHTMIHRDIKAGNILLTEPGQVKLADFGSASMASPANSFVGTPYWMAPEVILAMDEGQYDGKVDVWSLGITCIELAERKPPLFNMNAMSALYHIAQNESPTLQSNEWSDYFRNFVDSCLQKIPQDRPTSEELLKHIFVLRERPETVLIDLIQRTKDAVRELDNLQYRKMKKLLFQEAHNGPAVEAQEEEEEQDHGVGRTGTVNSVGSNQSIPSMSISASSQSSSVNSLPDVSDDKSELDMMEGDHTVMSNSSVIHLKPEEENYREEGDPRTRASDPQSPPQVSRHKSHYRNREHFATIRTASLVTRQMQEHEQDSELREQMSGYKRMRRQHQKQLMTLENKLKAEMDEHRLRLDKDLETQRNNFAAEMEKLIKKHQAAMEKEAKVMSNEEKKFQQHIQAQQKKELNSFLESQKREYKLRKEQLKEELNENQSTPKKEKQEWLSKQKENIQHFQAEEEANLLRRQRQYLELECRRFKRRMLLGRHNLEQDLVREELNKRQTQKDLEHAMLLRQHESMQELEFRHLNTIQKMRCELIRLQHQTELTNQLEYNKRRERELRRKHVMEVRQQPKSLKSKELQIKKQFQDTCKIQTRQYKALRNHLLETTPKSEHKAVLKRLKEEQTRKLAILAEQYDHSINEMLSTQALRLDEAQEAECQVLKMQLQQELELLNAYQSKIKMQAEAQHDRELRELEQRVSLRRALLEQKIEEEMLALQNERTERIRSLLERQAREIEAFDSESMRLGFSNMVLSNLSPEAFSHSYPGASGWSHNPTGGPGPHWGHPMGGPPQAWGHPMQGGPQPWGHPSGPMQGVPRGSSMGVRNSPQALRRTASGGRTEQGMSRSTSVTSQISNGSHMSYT
To be noted: kinase TAOK1; for remaining activity at 1 µM: read-out: TAOK1 (% of control at 1 µM).

Assay [6] has as its target T6, panel of 442 kinases (Homo sapiens, UniProt Q96RR4).
T6 construct: purchased Ambit Biosciences (scanMAXX KINOMEscan)
To be noted: CAMKK2; for remaining activity at 1 µM: read-out: % of control at 1 µM.

The mark [7] stands for this setting: 10 µM, read-out: % of control at 10 µM.

T6 sequence (Q96RR4 whole entry): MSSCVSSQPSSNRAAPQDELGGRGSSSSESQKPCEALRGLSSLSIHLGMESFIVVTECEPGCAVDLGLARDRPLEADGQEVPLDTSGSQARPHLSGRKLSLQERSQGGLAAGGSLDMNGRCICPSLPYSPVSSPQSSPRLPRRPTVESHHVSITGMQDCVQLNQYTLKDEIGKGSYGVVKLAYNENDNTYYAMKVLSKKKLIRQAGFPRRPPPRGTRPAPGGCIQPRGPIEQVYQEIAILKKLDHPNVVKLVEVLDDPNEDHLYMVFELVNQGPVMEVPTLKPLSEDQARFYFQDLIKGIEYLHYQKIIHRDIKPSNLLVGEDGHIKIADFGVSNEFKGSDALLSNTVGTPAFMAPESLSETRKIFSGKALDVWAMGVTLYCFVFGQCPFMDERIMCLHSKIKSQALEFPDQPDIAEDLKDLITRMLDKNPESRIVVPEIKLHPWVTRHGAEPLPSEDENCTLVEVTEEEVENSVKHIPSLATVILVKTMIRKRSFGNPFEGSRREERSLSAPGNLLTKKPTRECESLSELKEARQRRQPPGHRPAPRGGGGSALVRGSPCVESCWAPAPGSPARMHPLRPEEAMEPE
T4 sequence (Q9UPE1 whole entry): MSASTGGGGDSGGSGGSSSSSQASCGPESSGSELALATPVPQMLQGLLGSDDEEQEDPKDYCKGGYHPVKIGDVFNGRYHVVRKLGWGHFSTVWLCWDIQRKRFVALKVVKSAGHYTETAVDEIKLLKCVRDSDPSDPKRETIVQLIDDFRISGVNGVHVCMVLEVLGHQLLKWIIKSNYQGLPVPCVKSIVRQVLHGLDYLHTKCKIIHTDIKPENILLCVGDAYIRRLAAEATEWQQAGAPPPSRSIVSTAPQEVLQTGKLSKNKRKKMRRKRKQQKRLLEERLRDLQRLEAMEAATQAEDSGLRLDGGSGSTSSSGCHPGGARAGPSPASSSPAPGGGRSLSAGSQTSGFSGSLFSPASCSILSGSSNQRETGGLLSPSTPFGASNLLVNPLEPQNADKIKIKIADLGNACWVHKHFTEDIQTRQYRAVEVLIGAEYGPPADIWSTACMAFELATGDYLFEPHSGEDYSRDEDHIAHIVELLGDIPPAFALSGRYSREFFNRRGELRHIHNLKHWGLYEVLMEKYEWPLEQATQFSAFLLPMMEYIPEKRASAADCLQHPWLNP
T3 sequence (Q14012 whole entry): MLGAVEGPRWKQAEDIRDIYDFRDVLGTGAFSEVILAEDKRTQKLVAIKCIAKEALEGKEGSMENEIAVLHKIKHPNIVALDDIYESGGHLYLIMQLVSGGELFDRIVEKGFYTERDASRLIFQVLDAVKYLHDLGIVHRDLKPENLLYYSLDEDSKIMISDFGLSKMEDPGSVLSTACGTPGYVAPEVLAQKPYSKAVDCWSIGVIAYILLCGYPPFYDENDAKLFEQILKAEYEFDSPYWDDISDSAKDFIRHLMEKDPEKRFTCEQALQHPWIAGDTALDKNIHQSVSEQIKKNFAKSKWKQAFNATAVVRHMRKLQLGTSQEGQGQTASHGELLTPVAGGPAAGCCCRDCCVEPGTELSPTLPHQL
T2 sequence (P49840 whole entry): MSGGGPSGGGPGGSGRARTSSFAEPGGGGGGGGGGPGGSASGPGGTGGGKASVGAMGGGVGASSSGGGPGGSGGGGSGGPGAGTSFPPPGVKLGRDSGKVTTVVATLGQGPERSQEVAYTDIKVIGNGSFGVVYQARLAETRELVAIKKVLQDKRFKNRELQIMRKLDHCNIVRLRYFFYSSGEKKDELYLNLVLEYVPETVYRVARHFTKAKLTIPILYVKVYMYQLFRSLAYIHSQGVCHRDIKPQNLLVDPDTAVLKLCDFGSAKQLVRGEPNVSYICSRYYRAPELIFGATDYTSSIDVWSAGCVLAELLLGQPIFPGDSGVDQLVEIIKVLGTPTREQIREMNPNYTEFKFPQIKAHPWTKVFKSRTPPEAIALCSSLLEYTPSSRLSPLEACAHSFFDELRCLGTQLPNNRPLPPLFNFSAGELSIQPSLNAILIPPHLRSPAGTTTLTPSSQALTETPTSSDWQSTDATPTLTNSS

As to `COc1ncc(-c2ccc3nccc(-c4ccnnc4)c3c2)cc1NS(=O)(=O)c1ccc(F)cc1F` [Omipalisib], the remaining activity at 1 µM on panel of 442 kinases [1] is 100%; on panel of 442 kinases [2], 100%; at panel of 442 kinases [3] it was 100%; at panel of 442 kinases [4], 100%; on panel of 442 kinases [5], 100%; at panel of 442 kinases [6] it was 71%.
With `Cn1c(=O)n(-c2ccc(C(C)(C)C#N)cc2)c2c3cc(-c4cnc5ccccc5c4)ccc3ncc21` [Dactolisib, 2-methyl-2-[4-(3-methyl-2-oxo-8-quinolin-3-yl-2,3-dihydroimidazo[4,5-c]quinolin-1-yl)-phenyl] propionitrile], the remaining activity at 1 µM on panel of 442 kinases [1] came to 100%; at panel of 442 kinases [3] it was 78%; at panel of 442 kinases [4] it was 91%; on panel of 442 kinases [5], 70%; at panel of 442 kinases [6], 52%.
For `Nc1cc(C(F)(F)F)c(-c2cc(N3CCOCC3)nc(N3CCOCC3)n2)cn1` [Buparlisib], the remaining activity at 1 µM at panel of 442 kinases [1] was 87%; at panel of 442 kinases [2], 93%; on panel of 442 kinases [3], 100%; on panel of 442 kinases [4], 100%; at panel of 442 kinases [5] it was 86%; at panel of 442 kinases [6] it was 100%. Besides, the remaining activity at 10 µM worked out at 94% at panel of 442 kinases [1] (setting [7]); 100% on panel of 442 kinases [2] (setting [7]); 100% on panel of 442 kinases [3] (setting [7]); 100% on panel of 442 kinases [4] (10 µM, read-out: SRPK3 (% of control at 10 µM)); 82% at panel of 442 kinases [5] (10 µM, read-out: TAOK1 (% of control at 10 µM)); 100% at panel of 442 kinases [6] (setting [7]).
As for `FC(F)c1nc2ccccc2n1-c1nc(N2CCOCC2)nc(N2CCOCC2)n1` [ZSTK474, 2-(difluoromethyl)-1-[4,6-di(4-morpholinyl)-1,3,5-triazin-2-yl]-1H-benzimidazole], the remaining activity at 1 µM at panel of 442 kinases [1] worked out at 100%; at panel of 442 kinases [2], 100%; at panel of 442 kinases [3], 100%; on panel of 442 kinases [4], 100%; on panel of 442 kinases [5], 74%; on panel of 442 kinases [6] it was 100%.
